For this test, the system named is Rat α-Glucosidase. The experiment in a line: Alpha-glucosidase inhibition assay (rat intestinal acetone powder, pNPG substrate). It counts as biochemical. To be noted: for maximum inhibition / IC50: purified compounds and acarbose, Figure 2. On the procedure: • - Enzyme solution preparation: Enzyme solution was then sonicated 24 times, each for 12 s at 4 °C, and then centrifuged for 20 min at 10,000× g, 4 °C. The residue part was re-suspended twice with 15 mL of the same buffer (0.1 mol/L NPB, pH 7), as described above. All supernatants were mixed together and dialyzed for a half day at 4–6 °C to obtain the enzyme solution, which was then used for further analyses. • - Reaction and estimation of inhibitory activity: The enzyme inhibition assay was done according to Kwon et al. 2006 [40] with slight modification. The enzyme solution (50 µL) and the sample solution (50 µL) were mixed in 150 μL of 0.1 mol/L NPB, pH 7. This mixture was pre-incubated at 37 °C for 15 min. The reaction was started by adding 50 μL of the substrate pNPG (10 mmol/L) into this mixture solution, and this duration was kept at 37 °C for 30 min, then 325 μL of 1 mol/L Na2CO3 solution were added to terminate the reaction. This absorption of the final solution was measured at 410 nm (namely, E) using a UV spectrometer (UV-2550, Shimadzu, Japan) to estimate the enzymatic activity, and the control experiment was also conducted similarly, but instead of the inhibitor solution, 50 μL 0.1 mol/L potassium phosphate buffer (pH 7) and the absorbance was measured at 410 nm (namely, C). The inhibitory effect (%) was calculated using the equation below:
α-Glucosidase inhibition (%) = (C − E)/C × 100, where E denoted the optical density of the solution reaction in the presence of both α-glucosidase and the sample, and C is the optical density of the reaction blank.

≈ marks a conversion by molar mass, not a printed value.

From publication PMC10223997, “Screening and Elucidation of Chemical Structures of Novel Mammalian α-Glucosidase Inhibitors Targeting Anti-Diabetes Drug from Herbals Used by E De Ethnic Tribe in Vietnam” (Pharmaceuticals, 2023) come the findings set out here.

Regarding `C[C@H]1O[C@H](O[C@H]2[C@H](O)[C@@H](O)[C@@H](O[C@H]3[C@H](O)[C@@H](O)C(O)O[C@@H]3CO)O[C@@H]2CO)[C@H](O)[C@@H](O)[C@@H]1N[C@H]1C=C(CO)[C@@H](O)[C@H](O)[C@H]1O` (stereo partly drawn) [AC, acarbose, reference compound], the maximum inhibition is 84–85%. Moreover, the “Inhibition of Rat α-Glucosidase %” value (MeOH extracts of medicinal plants and acarbose, Table 1) is given as 92%. In addition, under “MeOH extracts of medicinal plants and acarbose, listed as Acarbose”, the “Inhibition of Rat α-Glucosidase IC50” value amounted to 310 µg/mL. The “Inhibition of Rat α-Glucosidase IC50” value (MeOH extracts of medicinal plants and acarbose, listed as acarbose) is given as 309 µg/mL.

With `Oc1cc(O)c2c(c1)O[C@H](c1ccc(O)c(O)c1)[C@H](O)C2` [ECC, (−)-epicatechin], the maximum inhibition is given as 84–85%.

The IC50 is the point on the concentration scale where inhibition reaches its midpoint. With `C[C@@H]1O[C@@H](Oc2cc3c(=O)oc4c(O)c(O)cc5c(=O)oc(c2O)c3c45)[C@H](O)[C@H](O)[C@H]1O` [EWC, eschweilenol C], the IC50 was 191 µg/mL (≈ 0.426 mM) and the maximum inhibition was determined as 93%.

In turn, `O=C(O)c1cc(O)c(O)c(O)c1` [GA, gallic acid] gave an IC50 of 973 µg/mL (≈ 5.72 mM) and a maximum inhibition of 80%.
